Measurements: US9481662B2, “Seriniquinones, melanoma-specific anticancer agents” (The Regents of the University of California, priority 2012, dated 2016)
Like-named read-outs stand apart in the source and are kept apart here.

Tests used:
DCD-1L = test: Covalent labeling of DCD-1L peptide (fluorescent band on SDS-PAGE); format: binding, human; conditions: 50 μM; for covalent labeling of DCD-1L: 37° C., 24 h; for fluorescent labeling of DCD-1L fragment: PBS pH 7.2, 5% DMSO, 23° C., 24 h (FIG. 5E)
Text: FIGS. 5A-5E: Seriniquinone (1) targets dermcidin (DCD). […] Sequence listing (FIG. 5B): […] (SEQ ID NO:3); […] (SEQ ID NO:4).
The reactivity between 1 and DCD was then examined. […] These studies now provided initial support for the formation of a unique trimeric covalent adduct, compound 15, between 1, DCD and targeted proteins such as GADPH.

HCT-116 cells [1] = test: Cytotoxicity analysis (MTT/MTS) in HCT-116 colon carcinoma cells; format: cell-based, human; conditions: for IC50: Homo sapiens
Text: Fortunately, 1 was fluorescent with excitation maxima at 250 nm (ε=20,800 cm^−1M^−1), 289 nm (ε=24,000 cm^−1M^−1) and 342 nm (ε=6900 cm^−1M^−1) and a broad emission from 490-680 nm. Using confocal microscopy, red and green fluorescence from 1 appeared in HCT-116 cells within minutes of addition (FIG. 3A). […] Time course confocal imaging studies were then combined with conventional activity MTT assays^6 to provide a detailed correlation between cellular localization and cytostatic activity.
HCT-116 colon carcinoma cells were plated in 96-well plates at 2.5×10^4 cells/well. After 24 h, the cultures were treated with a single concentration seriniquinone (1) within the range of 0.02-20.0 μM, etoposide (positive control) in the range of 0.05-50 μM or 1% DMSO (negative control). The cells were incubated for either 24 h, 48 h or 72 h. At the end of the incubation period, cultures were added with 3-(4,5-dimethylthiazol-2-yl)-5-(3-carboxymethoxyphenyl)-2-(4-sulfophenyl)-2H-tetrazolium (MTS) for 3 h. Cell viability was quantified by the ability of living cells to reduce the yellow MTS dye to a purple formazan product. Time course experiments were also conducted in HCT-116 cells. Cells were exposed to 1 over short periods (1 h, 3 h, 6 h, and 9 h) followed by incubation in drug-free media to complete a total of 24 h incubation before addition of MTS.

[2] = Stability on storage / in solution; format: physicochemical
NCI-60 cell line = NCI-60 cell line screen; format: cell-based; conditions: Homo sapiens; mean over NCI-60 panel
Experimental: (§1) This was further supported by the fact that 1 enhanced activity in melanoma cell lines with maximum activity against MALME-3M cells (GI50 value of 60 nM). With this in hand, chemical biological methods were applied to further probe this biological response.

HCT-116 cells [3] = test: Cell cycle and DNA fragmentation analysis (FACS / ImageStream); format: cell-based, human
Experimental: Cell cycle was analyzed by the ImageStream® cell analysis system (Amnis). Briefly, HCT-116 cells (1×10^5 cells/mL) were seeded in 24-well plates, and 24 h later, 0.3 μM 1, 3 μM 1, 30 μM 1 or 17 μM etoposide (positive control) or 1% DMSO (negative control) was added to the cultures. After 18 h or 24 h incubation, cells were recovered by treatment with 0.05% trypsin-EDTA solution (GIBCO-BRL). An 100 μL aliquot of these cells were incubated for 30 min in the dark with a hypotonic solution containing 50 μg/mL propidium iodide, 0.1% sodium citrate, and 0.1% Triton X-100. Fluorescence was measured and DNA fragmentation and cell cycle were analyzed using ModFit LT for Win32 version 3.1.

HCT-116 cells [4] = test: Confocal microscopy subcellular localization; format: cell-based, human; conditions: confocal imaging with counterstains
Experimental: Confocal studies were conducted on a LSM 710 inverted confocal microscope (Zeiss) with scanning module with 3 detection channels, Plan-Apochromat 63×/1.4 na objective, diode laser (405 nm, CW pulsed, 30 mW), Ar-laser (458 nm, 488 nm, 514 nm, 25 mW), HeNe-laser (543 nm, 1 mW) and HeNe-laser (633 nm, 5 mW). For all procedures, cells were seeded 24 h prior to treatment, to allow for adequate attachment to the well or flask bottom. Cells were plated in glass-bottom dishes (MatTek Corporation) for microscopic analyses at 1×10^5 cells/mL. Compounds were added to cells under 1 mL of media from […] such that the DMSO content remained under 0.1%. […]
Colocalization studies were conducted by treating cells (HCT-116 or MALME-3M) at a density of 1×10^5 cells/cm^2 in a 35 mm glass-bottom dish (MatTek Corporation). […] After 30 min, cells were washed PBS (4×1 mL) and immediately analyzed by confocal microscope. […] The localization of seriniquinone (1) was acquired by red fluorescence with emission at 550-631 nm, while the ER-tracker was acquired by blue florescence with emission at 406-450 nm. […] After 15 min, cells were washed PBS (4×1 mL) and immediately analyzed by confocal microscope. […] The localization of seriniquinone (1) was acquired by red fluorescence with emission at 550-631 nm, while the ER-tracker was acquired by blue florescence with emission at 415-530 nm.

HCT-116 cells [5] = test: Western blot analysis of cell cycle, apoptotic and autophagy markers; format: cell-based, human
Experimental: HCT-116 cells (1×10^6 cells/mL) were seeded in 75 cm^2 cell culture flasks and, 24 h later, treated with 3 μM 1, 30 μM 1, 17 μM etoposide (positive control), or 0.3% DMSO (negative control). After 24 h incubation, cells were washed in PBS, harvested and lysed in RIPA buffer. Protein extracts were quantified by an adapted micro-method of the Lowry assay using the DC Protein Assay kit (BioRad Laboratories). Equal amounts of protein (30 μg) from each treatment were fractionated using SDS-PAGE 5-15% gel and transferred to a PVDF membrane (BioRad Laboratories). The membranes were incubated overnight at 4° C. with primary antibodies for caspase-3, cleaved caspase-3, caspase 7, cleaved caspase-7, caspase-9, cleaved caspase-9, PARP, cleaved PARP, cyclin A, cyclin B1, cyclin D1, cyclin D3, cyclin D3, cyclin E1, cyclin E2, LC3A, LC3B or dermcidin (Santa Cruz Biotech). β-actin (Abcam) was used to normalize protein loading. After washing with TBS containing 0.1% Tween-20, the membranes were incubated with the appropriate secondary antibody alkaline phosphatase conjugate (Cell Signaling Technology Inc.), followed by BCIP/NBT color development substrate (Perkin-Elmer).

MALME-3M cells = test: NCI-60 cell line screen, melanoma line MALME-3M; format: cell-based; conditions: Homo sapiens, maximum activity in the panel
Experimental: as §1

DNA = test: In vitro DNA fragmentation assays; format: biochemical
[6] = HCT-116, Table 1, read-out: HCT 116 IC50

Q: For `O=C(O)CCc1ccc2c(=O)c3c(sc4c(=O)c5ccccc5c(=O)c43)c(=O)c2c1` [acid 11, 3-(5,7,12,13-Tetraoxo-5,7,12,13-tetrahydrodinaphtho[2,3-b:2′,3′-d]-thiophen-3-yl)-propanoic acid], which “covalent labeling of DCD-1L” value (DCD-1L) is on record?
A: covalently label DCD-1L

Q: With `O=C(Nc1ccc2c(=O)c3c(sc4c(=O)c5ccc(NC(=O)C(F)(F)F)cc5c(=O)c43)c(=O)c2c1)C(F)(F)F` [p12] as the compound, how does the IC50 (HCT-116 cells [1]; [6]) read?
A: 710 nM

Q: For `Nc1ccc2c(=O)c3c(sc4c(=O)c5ccc(N)cc5c(=O)c43)c(=O)c2c1` [p4], which IC50 (HCT-116 cells [1]; [6]) is on record?
A: 2200 nM

Q: For `Oc1c2ccccc2c(O)c2c1sc1c(O)c3ccccc3c(O)c12` [Compound S23], which stability in solution ([2]; in solution) is on record?
A: oxidizes rapidly back to S22a in solution

Q: With `O=c1c2cccc(O)c2c(=O)c2c1sc1c(=O)c3c(O)cccc3c(=O)c12` [p21] as the compound, how does the IC50 (HCT-116 cells [1]; [6]) read?
A: 700 nM

Q: With `O=c1c2cc(O)ccc2c(=O)c2c1sc1c(=O)c3ccc(O)cc3c(=O)c12` [p6] as the compound, how does the IC50 (HCT-116 cells [1]; [6]) read?
A: 1900 nM

Q: Which “HCT 116 IC50, μM” value (HCT-116 cells [1]; Table 1) does the source give for `O=c1c2ccccc2c(=O)c2sc3c(=O)c4ccccc4c(=O)c3sc12` [p2] here?
A: NSA

Q: With `O=c1c2ccccc2c(=O)c2c1sc1c(=O)c3ccccc3c(=O)c12` [Compound 1, dinaphtho[2,3-b:2′,3′-d]thiophene-5,7,12,13-tetraone] as the compound, how does the IC50 (HCT-116 cells [1]; [6]) read?
A: 350 nM

Q: What about the IC50 (HCT-116 cells [1]; HCT-116 cells treated over 24 h period, MTT assay, read-out: IC50) of the same compound?
A: 640 ± 60 nM

Q: What about the “covalent labeling of DCD-1L” value (DCD-1L) of the same compound?
A: covalently label DCD-1L

Q: And the “fluorescent labeling of DCD-1L fragment” value (DCD-1L)?
A: fluorescent bands corresponding to DCD-1L

Q: And the GI50 (NCI-60 cell line)?
A: 910 nM

Q: And the LC50 (concentration giving 50% cell kill) (NCI-60 cell line)?
A: 18600 nM

Q: What about the “DNA fragmentation (cells with subdiploid DNA)” value (HCT-116 cells [3]) of the same compound?
A: concentration dependent DNA fragmentation

Q: What about the “cell cycle phase of remaining cells” value (HCT-116 cells [3]) of the same compound?
A: S to G2 phase

Q: What about the subcellular localization (HCT-116 cells [4]) of the same compound?
A: appeared soon after treatment in the ER

Q: What about the “cleavage of caspases and PARP” value (HCT-116 cells [5]; HCT-116 cells) of the same compound?
A: induced cleavage of caspases 3, 7 and 9 PARP

Q: What about the “induction of autophagy (LC3A/LC3B conversion, Western blot)” value (HCT-116 cells [5]; HCT-116 cells, 24 h) of the same compound?
A: induced autophagy

Q: And the cyclin expression (HCT-116 cells [5]; HCT-116 treated cells)?
A: strong reduction in the expression of the cyclins D1, D2 and D3

Q: And the GI50 (MALME-3M cells)?
A: 60 nM

Q: What about the “DNA fragmentation in vitro” value (DNA) of the same compound?
A: failed to induce DNA fragmentation

Q: With `O=c1c2cc(Cl)ccc2c(=O)c2c1sc1c(=O)c3ccc(Cl)cc3c(=O)c12` [p9] as the compound, how does the IC50 (HCT-116 cells [1]; [6]) read?
A: 550 nM

Q: What does the source list for `CC(C)=CCCc1ccc2c(=O)c3c(sc4c(=O)c5ccccc5c(=O)c43)c(=O)c2c1` [alkene 10, 3-(4-Methylpent-3-en-1-yl)dinaphtho[2,3-b:2′,3′-d]thiophene-5,7,12,13-tetraone]?
A: covalent labeling of DCD-1L (DCD-1L): covalently label DCD-1L; fluorescent labeling of DCD-1L fragment (DCD-1L): fluorescent bands corresponding to DCD-1L; storage stability of pure material ([2]; 1 month at −20° C.): significant decomposition

Q: With `Nc1cccc2c(=O)c3c(sc4c(=O)c5cccc(N)c5c(=O)c43)c(=O)c12` [p20] as the compound, how does the IC50 (HCT-116 cells [1]; [6]) read?
A: 780 nM

Q: For `O=C(Nc1cccc2c(=O)c3c(sc4c(=O)c5cccc(NC(=O)C(F)(F)F)c5c(=O)c43)c(=O)c12)C(F)(F)F` [p23], which IC50 (HCT-116 cells [1]; [6]) is on record?
A: 78 nM

Q: Which IC50 (HCT-116 cells [1]; [6]) does the source give for `CC(=O)Oc1ccc2c(=O)c3c(sc4c(=O)c5ccc(OC(C)=O)cc5c(=O)c43)c(=O)c2c1` [p14] here?
A: 2100 nM
